24 compounds from US12286401B2, “Small molecules that sensitize HIV-1 infected cells to antibody dependent cellular cytotoxicity” (THE TRUSTEES OF THE UNIVERSITY OF PENNSYLVANIA, priority 2018, dated 2025) can be followed below.

Data set [1] deals with CH58TF infected primary CD4+ T-cells. Nature of the data set: Recognition of HIV-1 infected cells by 17b (flow cytometry cell-surface staining). Format: cell-based. As to conditions: Human immunodeficiency virus 1, T-cell, read-out: Fold Over DMSO (17b, n = 1). The protocol: (§1) Cell-surface staining of primary CD4+ T cells from healthy HIV uninfected individuals or CEM-NKr cells is performed, as described in Prevost, “Influence of the Envelope gp120 Phe 43 Cavity on HIV-1 Sensitivity to Antibody-Dependent Cell-Mediated Cytotoxicity Responses,” 2017, J. Virol 91; Richard, “CD4 mimetics sensitize HIV-1-infected cells to ADCC,” 2015, Proc. Natl. Acad. Sci. USA, 112:E2687-2694; Richard, “Small CD4 Mimetics Prevent HIV-1 Uninfected Bystander CD4+ T Cell Killing Mediated by Antibody-dependent Cell-mediated Cytotoxicity,” 2016, EBioMedicine 3:122-134; Veillette, “The HIV-1 gp120 CD4-Bound Conformation Is Preferentially Targeted by Antibody-Dependent Cellular Cytotoxicity-Mediating Antibodies in Sera from HIV-1-Infected Individuals,” 2015, J. Virol., 89:545-551; Veillette, “Interaction with cellular CD4 exposes HIV-1 envelope epitopes targeted by antibody-dependent cell-mediated cytotoxicity,” 2014, J. Virol., 88:2633-2644; Richard, “Uninfected Bystander Cells Impact the Measurement of HIV-Specific Antibody-Dependent Cellular Cytotoxicity Responses,” 2018, MBio. 9(2): e00358-18; Richard, “BST-2 Expression Modulates Small CD4-Mimetic Sensitization of HIV-1-Infected Cells to Antibody-Dependent Cellular Cytotoxicity,” 2017, J. Virol. 91(11):e00219-17. Binding of HIV-1 infected cells by HIV+ sera (1:1000 dilution) or anti-Env Abs (such as 17b) is performed […] in vitro infection at 37° C. in presence of different concentrations of the MCG analogs or with equivalent volume of vehicle (DMSO). Cells infected with HIV-1 primary isolates are stained intracellularly for HIV-1 p24 using the Cytofix/Cytoperm Fixation/Permeabilization Kit (BD Biosciences, Mississauga, ON, Canada) and then fluorescent anti-p24 mAb (PE-anti-p24, clone KC57; Beckman Coulter/Immunotech, Hialeah, FL) (1:100 final concentration). The percentage of infected cells (p24^+ or GFP+ cells) is determined by gating the living cell population based on the viability dye staining. Samples are analyzed on an LSRII cytometer (BD Biosciences, Mississauga, ON, Canada) and data analysis is performed using FlowJo vX0.7 (Tree Star, Ashland, OR, USA).
(§2) Briefly, Primary CD4 T cells isolated from PBMC were infected with HIV-1CH58TF for 48 hours. For cell surface staining, 5 μg/ml 17b (FIG. 15A) or 1:1000 diluted HIV+ plasma (n=15) (FIG. 15B) were used in the presence of the different MCG analogs (50 μM), (+)-BNM-III-170 or with an equivalent volume of vehicle (DMSO). An Alexa Fluor 647-conjugated anti-human IgG secondary Ab was then used for fluorescent labeling. For ADCC (FIG. 15C), infected cells were used as target cells in a FACS-based ADCC assay that measures the killing of infected (p24+ cells). See, Madani, 2016, J. Virol., 90:5031-5046. The assay determines susceptibility to ADCC mediated by a 1/1,000 dilution of plasma from 15 HIV-1-infected individuals in the presence of the different MCG analogs (50 μM), (+)-BNM-III-170 (50 μM) or with an equivalent volume of vehicle (DMSO). Correlation between cell-surface staining with HIV+ plasma and ADCC was calculated using the Spearman rank correlation (FIG. 15D).

Data set [2] has the same test system. Description: HIV+ patient sera/plasma recognition of CH58TF infected primary CD4+ T-cells (flow cytometry cell-surface staining). Format: cell-based, HIV-1. As to conditions: Human immunodeficiency virus 1, T-cell, read-out: Fold Over DMSO (patient sera, n = 3). The protocol: as §1
HIV+ Patient Sera (n=3) Recognition of CH58TF Infected Primary CD4+ T-Cells
Staining with patient sera and 50 μM of compounds given as a fold change over DMSO (vehicle).
as §2

Data set [3] relates to HIV-1JR-FL EnvΔCT expressed at the surface of HOS cells. Description: Cell-based ELISA (CBE), 17b readout. As to conditions: MCG analogs 50 μM; BNM-III-170 5 μM; 2G12 and DMSO normalized. The method in brief:
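HOS cells transiently expressing cytoplasmic-tail-truncated HIV-1JR-FL Env were treated 30 min at room temperature with compounds (50 μM), sCD4 ([…]) or DMSO, then 1 h with 17b antibody. Bound 17b was detected by HRP-conjugated anti-Fc chemiluminescence; values are fold over BNM-III-170 (5 μM), normalized to 2G12 and DMSO.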

A short description of another data set: Solubility in PBS. Format: physicochemical. The following applies: Yes/NO.

As to `CS(=O)(=O)N1CCC[C@H](C(=O)Nc2ccc(C(F)(F)F)cc2)C1` [(S)-MCG-III-027-A04], the fold induction at 50 µM in data set [1] is 1.07; in data set [2], 1.4. The “Fold over BNM-III-170 - 17b binding (±0.05)” value (shortened to “Fold … (±0.05)”) in data set [3] worked out at 0.17 fold. Besides, the “Solubility (in PBS)” value in “Solubility in PBS” is listed as “Yes”.
In the same order, the values of `CS(=O)(=O)N1CCC[C@H](C(=O)Nc2ccc(F)c(Cl)c2)C1` [(S)-MCG-III-085-A02] are 2.15, 1.13, 0.22 fold and “Yes”.
For `CS(=O)(=O)N1CCC[C@H](C(=O)Nc2ccc(Cl)c(Cl)c2)C1` [(S)-MCG-III-085-A03], in that order: 3.34, 1.46, 0.19 fold and “Yes”.
With `CS(=O)(=O)N1CCC[C@H](C(=O)Nc2ccc(F)c(F)c2)C1` [(S)-MCG-III-085-A04], the results for the fold induction at 50 µM in data set [1] and in data set [2] were 3 and 1.31, respectively. Also, the “Fold … (±0.05)” value in data set [3] is given as 0.10 fold. In addition, in the data set “Solubility in PBS”, the “Solubility (in PBS)” value is “Yes”.
In the same order, the values of `CS(=O)(=O)N1CCC[C@H](C(=O)Nc2ccc(Cl)c(Br)c2)C1` [(S)-MCG-III-085-A05] are 2.15, 1.11, 0.16 fold and “Yes”.
For `CS(=O)(=O)N1CCC[C@H](C(=O)Nc2ccc(Br)c(Cl)c2)C1` [(S)-MCG-III-085-A06], the fold induction at 50 µM in data set [1] is 3.3; in data set [2], 1.61. For the same compound, in data set [3], the “Fold … (±0.05)” value worked out at 0.14 fold. Besides, in the data set “Solubility in PBS”, the “Solubility (in PBS)” value is “Yes”.
`CCS(=O)(=O)N1CCC[C@H](C(=O)Nc2ccc(F)c(Cl)c2)C1` [(S)-MCG-III-085-C02]: the figures for the fold induction at 50 µM in data set [1] and in data set [2] were 2.15 and 1.19, respectively. The “Fold … (±0.05)” value in data set [3] is given as 0.20 fold. The “Solubility (in PBS)” value in “Solubility in PBS” is “Yes”.
For `CCS(=O)(=O)N1CCC[C@H](C(=O)Nc2ccc(Cl)c(Cl)c2)C1` [(S)-MCG-III-085-C03], in that order: 3.83, 1.65, 0.25 fold and “Yes”.
In the same order, the values of `CCS(=O)(=O)N1CCC[C@H](C(=O)Nc2ccc(F)c(F)c2)C1` [(S)-MCG-III-085-C04] are 3.95, 1.68, 0.26 fold and “Yes”.
In the same order, the values of `CCS(=O)(=O)N1CCC[C@H](C(=O)Nc2ccc(Cl)c(Br)c2)C1` [(S)-MCG-III-085-C05] are 1.77, 1.04, 0.26 fold and “Yes”.
In the case of `CS(=O)(=O)N1CCC[C@H](C(=O)Oc2ccc(Cl)c(F)c2)C1` [(S)-MCG-III-213-A01], the fold induction at 50 µM in data set [1] and in data set [2] was 1.08 in each case. For the same compound, in data set [3], the “Fold … (±0.05)” value was 0.07 fold. In “Solubility in PBS”, the “Solubility (in PBS)” value was “Yes”.
With `CCS(=O)(=O)N1CCC[C@H](C(=O)Oc2ccc(Cl)c(F)c2)C1` [(S)-MCG-III-213-A02], the fold induction at 50 µM is 1.07 in data set [1] and 1.03 in data set [2]. For the same compound, the “Fold … (±0.05)” value in data set [3] turned out to be 0.07 fold. Also, the “Solubility (in PBS)” value in the data set “Solubility in PBS” is reported as “Yes”.
As for `Cn1cnc(S(=O)(=O)N2CCC[C@H](C(=O)Oc3ccc(Cl)c(F)c3)C2)c1` [(S)-MCG-III-213-A04], the fold induction at 50 µM in data set [1] came to 1.06; in data set [2] it was 1.07. The “Fold … (±0.05)” value in data set [3] is listed as 0.10 fold. For the same compound, the “Solubility (in PBS)” value in “Solubility in PBS” was “Yes”.
Take `CCN1CC(C(=O)Nc2ccc(Cl)c(F)c2)Cc2ccccc21` (stereo not drawn) [MCG-III-201]: the fold induction at 50 µM in data set [1] worked out at 1.39; in data set [2], 0.989. Besides, the “Solubility (in PBS)” value in “Solubility in PBS” was “Yes”.
`O=C(Nc1ccc(Cl)c(F)c1)C1CNc2ccccc2C1` (stereo not drawn) [MCG-III-209]: the fold induction at 50 µM in data set [1] worked out at 3.23; in data set [2], 1.82. In the data set “Solubility in PBS”, the “Solubility (in PBS)” value is “Yes”.
Take `CS(=O)(=O)N1CCOC(C(=O)Nc2ccc(Cl)c(F)c2)C1` (stereo not drawn) [MCG-III-211-A01]: the fold induction at 50 µM came out at 2.63 in data set [1] and 1.47 in data set [2]. For the same compound, the “Fold … (±0.05)” value in data set [3] is on record as 0.28 fold. For the same compound, the “Solubility (in PBS)” value in “Solubility in PBS” was “Yes”.
As for `CCS(=O)(=O)N1CCOC(C(=O)Nc2ccc(Cl)c(F)c2)C1` (stereo not drawn) [MCG-III-211-A02], the fold induction at 50 µM came out at 3.64 in data set [1] and 1.81 in data set [2]. Also, the “Fold … (±0.05)” value in data set [3] worked out at 0.33 fold. Besides, the “Solubility (in PBS)” value in the data set “Solubility in PBS” is “Yes”.
As for `Cn1cnc(S(=O)(=O)N2CCOC(C(=O)Nc3ccc(Cl)c(F)c3)C2)c1` (stereo not drawn) [MCG-III-211-A04], the figures for the fold induction at 50 µM in data set [1] and in data set [2] were 3.61 and 1.63, respectively. Moreover, the “Fold … (±0.05)” value in data set [3] worked out at 0.35 fold. Moreover, in the data set “Solubility in PBS”, the “Solubility (in PBS)” value is listed as “Yes”.
In the same order, the values of `CC(C)(C)OC(=O)N1CCN(S(C)(=O)=O)CC1C(=O)Nc1ccc(Cl)c(F)c1` (stereo not drawn) [MCG-III-212-A01] are 0.968, 0.982, 0.06 fold and “Yes”.
For `CCS(=O)(=O)N1CCNC(C(=O)Nc2ccc(Cl)c(F)c2)C1` (stereo not drawn) [MCG-III-212-A02], in that order: 3.95, 1.85, 0.36 fold and “Yes”.
For `Cn1cnc(S(=O)(=O)N2CCN(C(=O)OC(C)(C)C)C(C(=O)Nc3ccc(Cl)c(F)c3)C2)c1` (stereo not drawn) [MCG-III-212-A04], in that order: 1.04, 0.924, 0.06 fold and “Yes”.
Take `CS(=O)(=O)N1CC(C(=O)Nc2ccc(Cl)c(F)c2)Cc2ccccc21` (stereo not drawn) [MCG-III-214-A01]: the results for the fold induction at 50 µM in data set [1] and in data set [2] were 1.39 and 1.29, respectively. Besides, the “Fold … (±0.05)” value in data set [3] was determined as 0.24 fold. Also, the “Solubility (in PBS)” value in “Solubility in PBS” is recorded as “Yes”.
In the case of `CCS(=O)(=O)N1CC(C(=O)Nc2ccc(Cl)c(F)c2)Cc2ccccc21` (stereo not drawn) [MCG-III-214-A02], the figures for the fold induction at 50 µM in data set [1] and in data set [2] were 5.16 and 3.25, respectively. In addition, the “Solubility (in PBS)” value in “Solubility in PBS” is reported as “Yes**”.
In the case of `O=C(Nc1ccc(Cl)c(F)c1)C1CNCCN1` (stereo not drawn) [MCG-III-216-A01], the fold induction at 50 µM came out at 1.73 in data set [1] and 0.999 in data set [2]. For the same compound, in data set [3], the “Fold … (±0.05)” value stood at 0.21 fold. In “Solubility in PBS”, the “Solubility (in PBS)” value is “Yes”.
